Assay results from patent US20230167170A1, “COMPOSITIONS COMPRISING ANTI-VEGF AND NANOPARTICLES AND METHODS OF USING THE SAME FOR THE TREATMENT OF ABNORMAL OR EXCESSIVE ANGIOGENESIS” (Cellviva, LLC, priority 2020, published 2023).

System: pyogenic granuloma lesion
Test: Treatment of pyogenic granuloma after pterygiectomy and amniotic membrane graft with bevacizumab combination therapy (patient cases)
Format: in vivo, human
Method: A topical anesthetic (proparacaine 0.5% eye drops or Alcaine manufactured by Alcon Laboratories, Inc.) was applied to the eye following recent pterygiectomy and amniotic membrane graft surgery. The patients were examined to identify any abnormal grown on the eye. […] A syringe containing approximately 0.05 mL of bevacizumab ([…]) was injected into the eye and the plunger was drawn back to determine if blood was present in the syringe hub. […] Bevacizumab was then injected into the pyogenic granuloma lesion and/or in areas adjacent to the lesion where blood vessels were dilated and numerous. If bleeding occurred (e.g., in the form of subconjunctival or subcutaneous hematoma), tamponade with Q-tips was performed until bleeding stopped; then injection was resumed. The anti-inflammatory steroid drug and/or NSAID were administered either before or after the bevacizumab injection. The anti-inflammatory steroid drug and/or NSAID were administered by injection and/or via eye drops. If the anti-inflammatory steroid drug and/or NSAID was administered by injection, it was done following a similar process as described above for the bevacizumab injection. A syringe containing approximately 0.03 mL triamcinolone injection (40 mg/mL) was injected into the pyogenic granuloma lesion and the plunger was drawn back to determine if blood was present in the syringe hub. […] The anti-inflammatory steroid drug or NSAID was injected into the pyogenic granuloma lesion and/or in areas adjacent to the lesion where blood vessels were dilated and numerous. If bleeding occurred (e.g., in the form of subconjunctival or subcutaneous hematoma), tamponade with Q-tips was performed until bleeding stopped; then injection was resumed. If the anti-inflammatory steroid drug or NSAID was delivered by eyedrops, the steroid eye drops were given for approximately 6 weeks 1 to 4 times a day (every 6 hours) or once every hour (24 drops/day). NSAID eye drops were given 4 times a day every 6 hours for 3 to 6 months. Patients were followed up with to monitor for appearance of new pyogenic granuloma. The presence of new pyogenic granuloma was an indication for further treatment (e.g. with injection and/or eye drops). In some cases, during the first surgery to remove pterygium, the pterygium was only partially removed to prevent necrosis). Thus, in some patients, additional surgeries were subsequently performed to remove remaining sections of the pterygium, resulting in additional pyogenic granuloma. Two patients (Patients 1 and 2) underwent surgery to remove primary pterygium (pterygiectomy) from the cornea of one or both eyes followed by amniotic membrane graft surgery and were treated as described below.

[1] = Patient 2, left eye, 1-month follow-up visit, triamcinolone day 98, bevacizumab day 100

Substance: bevacizumab
- resolution of pyogenic granuloma (Patient 1, right eye, 30 days after day 104, triamcinolone day 90, bevacizumab day 97): completely resolved
- pyogenic granuloma size (Patient 1, right eye, day 104 after surgery, triamcinolone 0.03 mL (40 mg/mL) day 90, then bevacizumab 0.05 mL (1.25 mg/mL) day 97, both into the lesion): considerably smaller in circumference
- hyperemia of pyogenic granuloma (Patient 1, right eye, day 104 after surgery, triamcinolone day 90, bevacizumab day 97): no evidence of hyperemia
- pyogenic granuloma lesions, stated conclusion (Patient 1, combination therapy of bevacizumab and an anti-inflammatory steroid (injected)): inhibited
- recurrence of pyogenic granuloma [1]: no evidence of recurrence
- resolution of pyogenic granuloma [1]: completely resolved
- pyogenic granuloma size (Patient 2, left eye, within two weeks of bevacizumab injection, triamcinolone 0.03 mL (40 mg/mL) day 98, bevacizumab 0.05 mL (1.25 mg/mL) day 100): significantly smaller
- erythema of pyogenic granuloma (Patient 2, left eye, within two weeks of bevacizumab injection, triamcinolone day 98, bevacizumab day 100): less erythematous
- pyogenic granuloma lesions, stated conclusion (Patient 2, combination therapy of bevacizumab and an anti-inflammatory steroid (injected or topical)): inhibited
- resolution of pyogenic granuloma (Patient 3, right eye, day 86, triamcinolone 0.03 mL (40 mg/mL) day 60, bevacizumab 0.05 mL (1.25 mg/mL) day 68, FIG. 4): completely resolved
- pyogenic granuloma, stated conclusion (Patient 3, combination therapy of bevacizumab, an anti-inflammatory steroid (injected or topical) and a topical NSAID): eliminated
- combination therapy compared with bevacizumab alone (Patient 3, combination therapy of bevacizumab, anti-inflammatory steroid and topical NSAID): superior to treatment with bevacizumab alone
- pyogenic granuloma lesion after steroid and anti-VEGF injection (Patient's eye 18 days after injection of both Kenalog and bevacizumab, FIG. 4): significant reduction in the pyogenic granuloma lesion
